Results taken from patent US20060014717A1, “Therapeutic compositions for use in prophylaxis or treatment of diarrheas” (priority 2002, published 2006).

Tests used:
diarrheagenic E. coli = test: Inhibition with soluble oligosaccharides in the chromatogram binding assay; design: species or system Escherichia coli
Experimental: (§1) Glycosphingolipid Binding Assays—Binding of ^35S-labeled bacteria to glycosphingolipids on thin-layer chromatograms was done as reported (7). Dried chromatograms were dipped for 1 min in diethylether/n-hexane (1:5, by volume) containing 0.5% (w/v) polyisobutylmethacrylate (Aldrich Chem. Comp. Inc., Milwaukee, Wis.). After drying, the chromatograms were soaked in PBS containing 2% bovine serum albumin (w/v), 0.1% NaN3 (w/v) and 0.1% Tween 20 (by volume) for 2 h at room temperature. The chromatograms were subsequentely covered with radiolabeled bacteria diluted in PBS (2-5×10^6 cpm/ml). Incubation was done for 2 h at room temperature, followed by repeated washings with PBS. The chromatograms were thereafter autoradiographed using XAR-5 X-ray films (Eastman Kodak, Rochester, N.Y.) for 12 h. Autoradiograms were replicated using a CCD camera (Dage-MTI, Inc., Michigan City, Ind.), and analysis of the images was performed using the public domain NIH Image program (developed at the U.S. National Institutes of Health, and available at http://rsb.info.nih.eov/nih-imaee/).
The final concentrations of the inhibiting oligosaccharides on the TLC-plate were 0.3 mM. […] Thereafter the chromatogram binding assay was performed as described above.

[1] = test system: diarrheagenic Escherichia coli CCUG 38068 (EPEC); test: Chromatogram binding assay of 35S-labeled bacteria to glycosphingolipids on thin-layer plates; details: thin-layer chromatograms, TLC overlay
Experimental: (§2) Culture Conditions and Labeling—The E. coli strains were cultured on Luria-agar with the addition of 10 μl ^35S-methionine (400 tici; Amersham Pharmacia Biotech, U.K.) at 37° C. for 12 h. The bacteria were harvested by scraping, washed three times with phosphate-buffered saline (PBS), pH 7.3, and thereafter resuspended in PBS (with or without 1% mannose (w/v)) to 1×10^8 CFU/ml. The specific activities of the suspensions were approximately 1 cpm per 100 bacteria.
(§3) Thin-Layer Chromatography—Thin-layer chromatography of glycosphingolipids was performed on glass- or aluminum-backed silica gel 60 HPTLC plates (Merck, Darmstadt, Germany), using chloroform/methanol/water 60:35:8 (by volume) as solvent system. Chemical detection was done with anisaldehyde (6).
as §1

[2] = test system: diarrheagenic Escherichia coli CCUG 38077 (EAEC); test: as above; details: thin-layer chromatograms, TLC overlay
Experimental: as §2, §3, §1

EPEC strain = details: listed in decreasing order of activity; cited from earlier work

| Compound | Binding of strain CCUG 38068 to glycosphingolipids and neoglycolipids, in words [1] | Binding of strain CCUG 38077 to glycosphingolipids and neoglycolipids, in words [2] | Binding of an EPEC strain to commercial glycolipids (EPEC strain) | other results |
| --- | --- | --- | --- | --- |
| CC(=O)N[C@H]1[C@H](O[C@H]2[C@@H](O)[C@@H](CO)O[C@@H](O[C@H]3[C@H](O)[C@@H](O)C(O)O[C@@H]3CO)[C@@H]2O)O[C@H](CO)[C@@H](O[C@@H]2O[C@H](CO)[C@H](O)[C@H](O)[C@H]2O)[C@@H]1O (mixture of isomers) [Lacto-N-neotetraose, Galβ4GlcNAcβ3Galβ4Glc] | – | – | – | Inhibition of binding to neolacto glycolipid (diarrheagenic E. coli; 0.3 mM final concentration): inhibited binding |
| CC(=O)N[C@H]1C(O)O[C@H](CO)[C@H](O)[C@@H]1O[C@@H]1O[C@H](CO)[C@H](O)[C@H](O)[C@H]1O (some centres unmarked) [Galβ3GalNAc] | – | – | – | Activity as monovalent inhibitor against the Ganglio-receptor glycolipid (diarrheagenic E. coli; 0.3 mM concentration): not active |
| CCCCCCCCCCCCCCCCc1ccc(NC[C@H](O)[C@@H](O)[C@H](O[C@@H]2O[C@H](CO[C@@H]3O[C@H](CO)[C@@H](O)[C@H](O)[C@H]3NC(C)=O)[C@H](O)[C@H](O[C@@H]3O[C@H](CO)[C@@H](O)[C@H](O[C@@H]4O[C@H](CO)[C@H](O)[C@H](O)[C@H]4O)[C@H]3NC(C)=O)[C@H]2O)[C@H](O)CO)cc1 [Galβ3GlcNAcβ3(GlcNAcβ6)Galβ4Glc(red)-HDA] | much weaker or non-existent binding activities | much weaker or non-existent binding activities | – | – |
| CCCCCCCCCCCCCCCCc1ccc(NC[C@H](O)[C@@H](O)[C@H](O[C@@H]2O[C@H](CO)[C@H](O)[C@H](O[C@@H]3O[C@H](CO)[C@@H](O[C@@H]4O[C@H](CO)[C@H](O)[C@H](O[C@@H]5O[C@H](CO)[C@@H](O)[C@H](O)[C@H]5NC(C)=O)[C@H]4O)[C@H](O)[C@H]3NC(C)=O)[C@H]2O)[C@H](O)CO)cc1 [GlcNAcβ3Galβ4GlcNAcβ3Galβ4Glc(red)-HDA] | had binding activity | had binding activity | – | – |
| CCCCCCCCCCCCCCCCc1ccc(NC[C@H](O)[C@@H](O)[C@H](O[C@@H]2O[C@H](CO[C@@H]3O[C@H](CO)[C@@H](O[C@@H]4O[C@H](CO)[C@H](O)[C@H](O[C@@H]5O[C@H](CO)[C@@H](O)[C@H](O)[C@H]5NC(C)=O)[C@H]4O)[C@H](O)[C@H]3NC(C)=O)[C@H](O)[C@H](O)[C@H]2O)[C@H](O)CO)cc1 [GlcNAcβ3Galβ4GlcNAcβ6Galβ4Glc(red)HDA, GlcNAcβ3Galβ4GlcNAcβ6Galβ4Glc(red)-HDA] | much weaker or non-existent binding activities | much weaker or non-existent binding activities | – | – |
| CC(=O)N[C@H]1[C@H](O[C@H]2[C@@H](O)[C@@H](CO)O[C@@H](O[C@H]3[C@H](O)[C@@H](O)C(O)O[C@@H]3CO)[C@@H]2O)O[C@H](CO)[C@@H](O)[C@@H]1O[C@@H]1O[C@H](CO)[C@H](O)[C@H](O)[C@H]1O (some centres unmarked) [Lacto-N-tetraose, Galβ3GlcNAcβ3Galβ4Glc] | – | – | observed to bind | Inhibition of binding to lactotetraosylceramide (diarrheagenic E. coli; lowest densities of glycolipids): able to inhibit |
| CCCCCCCCCCCCCCCCc1ccc(NC[C@@H](O)[C@@H](O[C@H]2O[C@H](CO)[C@@H](O)[C@H](O)[C@@H]2O)[C@H](O)[C@H](O)CO[C@H]2O[C@H](CO)[C@@H](O)[C@H](O)[C@@H]2O)cc1 [Manα3(Manα6)Man(red)-HDA] | had binding activity | had binding activity | – | Binding of strain CCUG 38068 to glycosphingolipids and neoglycolipids, in words ([1]; listed as Manα3(Manα6)Man): bind; Binding of strain CCUG 38077 to glycosphingolipids and neoglycolipids, in words ([2]; listed as Manα3(Manα6)Man): bind |
| GalNAcα3GalNAcβ3Galα4Galβ4Glcβ1Cer [No. 14] | – | – | negative | – |
| GalNAcβ4Galβ4Glcβ1Cer [No. 10] | – | – | observed to bind | – |
| Galα4Galβ4Glcβ1Cer [No. 8] | – | – | negative | – |
